Entries after “also recorded” stand apart in the source; their conditions may differ. One block for each molecule: values may come before it.
Tests used:
[1] = tested on: cortical axons repelled by Sema3A secreted from the ventral spinal cord; assay: Co-culture of cortical slices and ventral spinal cord explants (axon guidance response to Sema3A); assay type: cell-based, mice; details: for Axonal length, Away / Number of axons, Away / Axonal length, Towards / Number of axons, Towards: Ctx/vSC co-culture, L1Fc 3 μg/ml, ODQ 10^−5 M; for Axonal length, Away / Number of axons, Away: growth away from spinal cord explant; for Axonal length, Towards / Number of axons, Towards: growth towards spinal cord explant; for effect of inhibitor on L1Fc-induced switch of Sema3A repulsion to attraction: inhibitor combined with L1Fc 3 μg/ml; for guidance index: qualitative index from −2 (repulsion) to +2 (attraction), L1Fc chimeras 3 μg/ml, ODQ 10^−5M; for conversion of Sema3A-induced chemorepulsion into attraction by peptide: peptide at 10^−6M
Method: Blocks of cortex were dissected from P0 (postnatal day 0) to P2 mice and cut into 250 μm thick slices with a McIlwain tissue chopper. The ventral part of the cervical spinal cord was dissected and cut into 250 μm thick slices. Co-culture of cortical slices and ventral spinal cord explants were performed in a three-dimensional plasma clot, as described previously (Castellani et al., 2000). Cortical slices were oriented in the plasma clot as indicated in FIG. 1B to give to axons equivalent chances to be deflected away or towards the spinal cord explant. Purified wild-type or mutant L1Fc chimeras were added to the culture medium (3 μg/ml). Inhibitors of the guanylyl cyclase (ODQ, 10^−5 M, Sigma) and NOS (7NI, […], Sigma) were added to the culture medium, either alone or with wild-type L1Fc (3 μg/ml). After one or two days in vitro (DIV), the cultures were fixed with 4% paraformaldehyde (PFA) and analyzed by phase contrast microscopy (Axiovert 35-M, Zeiss). A qualitative guidance index was attributed to the co-cultures, to assess the degree of repulsive (negative values) or attractive (positive values) effects (Castellani et al., 2000). The index ranged from −2 (when most fibers grew away from the spinal cord explant) to +2 (when most fibers grew towards the explant), with intermediate situations (index of −1 and +1 for moderate guidance effects). An index of zero was attributed to the cultures showing no preferential growth. Quantitative analysis of axon length and number of axons growing from cortical slices was performed as described previously (Castellani et al., 2000). A proximal and a distal region, each of them covering a 600 μm-piece of cortical tissue were determined for each culture. All fibers extending from these two regions were counted and the length of the three longest fibers was measured, using computer analysis software (Visiolab 2000, Biocom). Immunofluorescence labeling of axons was performed using the mouse anti-phosphorylated neurofilament antibody SMI31 (Stemberger and Meyer Inc.), and Texas red-conjugated secondary anti-mouse antibody (see result obtained for number of axons and axonal length in the following tables 1 and 2).
It has been previously developed an assay system using explants of ventral spinal cord co-cultured with cortical axons in order to determine the factors involved in axonal repulsion and attraction (Castellani et al., 2000). Using this system we have shown that Sema3A secreted from the ventral spinal cord repels cortical axons. In the presence of soluble wild-type L1Fc chimeric protein however, repulsion is switched to attraction (Castellani et al., […]). In the present study, we aimed to identify the L1 interactions underlying the switching process. As Ig domains have been implicated in binding of Ig CAMs to many of their ligands (Brümmendorf and Rathjen, 1996) we hypothesized that they would also be required for L1 Fc-mediated switching. […] L1 Fc chimeras containing pathological missense mutations affecting specific Ig domains (De Angelis et al., 1999 and FIGS. 1A, 1B) were assessed for their ability to reverse Sema3A repulsion to attraction.

NP-1 = assay: Binding of L1Fc chimeras to NP-1 expressing COS7 cells (immunofluorescence)
Method: (§1) The mutant L1Fc chimeras were produced and purified as described previously (De Angelis et al., 1999). Briefly, COS-7 cells were transiently transfected with 10 μg DNA per 150 mm culture dish, the soluble Fc chimeric protein was allowed to accumulate in the media for 6 days and was recovered and purified by protein A-Sepharose affinity chromatography. In the binding experiments, L1Fcs were cross-linked to anti-human Fc antibodies (50 μg/ml, Jackson Immunoresearch) for 1 hr at 37° C. Binding detection to NP-1 requested concentrations of L1Fcs 10 folds higher than L1. Antibody conjugated L1-Fc protein was then incubated with monolayers of COS7 cells transiently transfected with expression vectors encoding full length human L1 or myc-tagged NP-1 where the cytoplasmic domain is deleted (gift of J. Raper, 2000 and Renzi et al., 1999). Following incubation, the cells were fixed with 4% PFA, and processed for double-immunofluorescence detection. NP-1 was detected using a mouse anti-c myc antibody (clone 9E10, Sigma) and L1 using a rat monoclonal anti-L1 antibody. Secondary antibody anti-c-myc (Texas-red conjugated anti-mouse antibodies) was used to detect NP-1, anti-L1 (Texas red conjugated anti-rat antibodies) to detect L1, and anti-Fc (FITC conjugated anti-rabbit antibodies) to detect bound L1Fc chimeras. After secondary antibody incubation, the cells were washed with PBS and mounted in Mowiol (Calbiochem).
Next, we examined the ability of the mutant L1 Fc chimeras to bind NP-1. COS7 cells were transfected with a vector encoding the extracellular and transmembrane domains of NP-1 fused to a myc tag (ANP-1, Renzi et al., J. Neurosci., 15:7870-7880, 1999), and incubated with the mutant L1Fc chimeras. Binding was detected by immunofluorescence. […] Binding of L120V, G121S and A426D L1Fcs to NP-1 is illustrated in FIG. 3.

L1 = details: mutant bound to itself; cited from earlier work
full length human L1 = biological target: T1, full length human L1 (Homo sapiens, UniProt P32004); assay: Binding of L1Fc chimeras to COS cells expressing wild-type L1 (immunofluorescence)
T1 construct: transiently transfected with expression vectors encoding full length human L1; expressed in transfected cells; host or cells: COS7
T1 sequence (P32004 20-1257): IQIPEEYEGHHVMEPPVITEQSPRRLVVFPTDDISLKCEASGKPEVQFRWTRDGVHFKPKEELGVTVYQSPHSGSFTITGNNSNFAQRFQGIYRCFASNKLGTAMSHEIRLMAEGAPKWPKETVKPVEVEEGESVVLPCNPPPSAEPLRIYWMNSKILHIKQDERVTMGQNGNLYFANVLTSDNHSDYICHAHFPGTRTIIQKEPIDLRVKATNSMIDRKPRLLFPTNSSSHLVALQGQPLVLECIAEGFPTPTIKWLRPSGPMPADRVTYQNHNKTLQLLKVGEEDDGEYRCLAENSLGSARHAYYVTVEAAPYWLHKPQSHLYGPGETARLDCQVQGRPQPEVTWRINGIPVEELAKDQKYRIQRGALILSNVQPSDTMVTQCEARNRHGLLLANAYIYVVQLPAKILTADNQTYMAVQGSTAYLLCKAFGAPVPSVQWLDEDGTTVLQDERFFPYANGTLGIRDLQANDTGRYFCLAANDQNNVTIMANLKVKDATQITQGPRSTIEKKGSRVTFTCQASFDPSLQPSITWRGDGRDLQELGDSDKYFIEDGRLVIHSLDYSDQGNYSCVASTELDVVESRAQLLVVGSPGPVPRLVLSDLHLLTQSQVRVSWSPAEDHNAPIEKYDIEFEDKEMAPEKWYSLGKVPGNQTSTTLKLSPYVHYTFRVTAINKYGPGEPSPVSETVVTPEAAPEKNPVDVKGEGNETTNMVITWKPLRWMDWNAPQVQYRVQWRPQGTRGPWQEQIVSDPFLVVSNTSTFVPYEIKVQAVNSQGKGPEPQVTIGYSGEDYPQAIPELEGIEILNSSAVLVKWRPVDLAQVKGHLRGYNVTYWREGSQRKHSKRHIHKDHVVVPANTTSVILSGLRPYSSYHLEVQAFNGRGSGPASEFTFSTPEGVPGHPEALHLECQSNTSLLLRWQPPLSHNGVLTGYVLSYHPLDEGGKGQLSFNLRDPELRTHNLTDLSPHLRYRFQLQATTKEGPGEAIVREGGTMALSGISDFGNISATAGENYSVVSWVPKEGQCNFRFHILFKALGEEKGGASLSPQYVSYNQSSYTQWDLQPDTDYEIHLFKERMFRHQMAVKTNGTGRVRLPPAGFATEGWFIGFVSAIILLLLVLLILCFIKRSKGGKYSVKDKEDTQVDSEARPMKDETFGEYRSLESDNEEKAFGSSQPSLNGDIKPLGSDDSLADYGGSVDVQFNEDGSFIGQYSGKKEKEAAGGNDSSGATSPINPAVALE
Method: as §1
Thus, Ig CAMs F3 and TAG-1 (the rodent homologue of axonin-1) ate unlikely to be axonal receptors for L1Fc in the reversion process. […] In the present study however, mutated L1Fc proteins were required to interact with wild-type L1 expressed on growth cones. To formally exclude a role for homophilic binding of L1 in the initiation of the reversion process, it was therefore necessary to examine whether homophilic binding of the mutated L1Fc chimeras to wild-type L1 was also disrupted. Mutated L1Fcs were therefore incubated with COS7 cells transfected with full-length wild-type L1 cDNA and binding was assessed by immunofluorescence. In parallel, homophilic binding of mutant/mutant and mutant/wild-type L1Fcs was compared in a two-color FACS aggregation assay, allowing a quantitative assessment to be made (see Methods). […] Similarly, in the two color FACS assay homophilic binding was restored to 74.4% and 90.5% of wild-type levels for A426D and H210Q respectively (FIG. 2B). […] This mutation however still promoted the L1 Fc induced switching of Sema3A repulsion to attraction in the co-culture assay. Thus, the ability of L1Fc to switch Sema3A repulsion is not dependent on homophilic binding. Consequently, the trans interaction of L1Fc with L1 in the receptor complex is not required for the change in growth cone responsiveness to Sema3A.

Molecule: O=[N+]([O-])c1cccc2cn[nH]c12 [7NI, 7 nitroindazole, reference compound]
Axonal length, Away [1]: 407.6 +/− 5
Number of axons, Away [1]: 25.6 +/− 1.6
Axonal length, Towards [1]: 203.1 +/− 6, *
Number of axons, Towards [1]: 5 +/− 0.6, *
effect of inhibitor on L1Fc-induced switch of Sema3A repulsion to attraction [1]: did block L1Fc-mediated chemoattraction; also recorded: prevented the L1 Fc induced switching of Sema3A from repulsion to attraction
guidance index [1]: −1.6

Molecule: O=c1onc2cnc3ccccc3n12 [ODQ, 1H-(1,2,4)oxadiazolo(4,3-a)quinoxalin-1-one, reference compound]
Axonal length, Away [1]: 384.1 +/− 7
Number of axons, Away [1]: 25.2 +/− 1.8
Axonal length, Towards [1]: 206.9 +/− 8, *
Number of axons, Towards [1]: 5.1 +/− 0.5, *^
effect of inhibitor on L1Fc-induced switch of Sema3A repulsion to attraction [1]: reversion was prevented; also recorded: prevented the L1 Fc induced switching of Sema3A from repulsion to attraction
guidance index [1]: −1.6

Molecule: ASNKL (Description of the Artificial sequence Derived from the human amino-acid sequence of L1 Ig1 domain) [ASNKL120, five amino-acid peptide from L1 Ig1 domain]
conversion of Sema3A-induced chemorepulsion into attraction by peptide [1]: successfully converted Sema3A-induced chemorepulsion into attraction

Molecule: FASNKLGTAM (Description of the Artificial sequence Derived from the human amino-acid sequence of L1 Ig1 domain) [ten amino-acid peptide from L1 Ig1 domain]
conversion of Sema3A-induced chemorepulsion into attraction by peptide [1]: successfully converted Sema3A-induced chemorepulsion into attraction

binding to wild-type L1 expressed in COS cells (full length human L1): bound to wild-type L1
B1: H210Q: L1Fc chimera with missense mutation H210Q in Ig domain 2 (protein)
chain: IQIPEEYEGHHVMEPPVITEQSPRRLVVFPTDDISLKCEASGKPEVQFRWTRDGVHFKPKEELGVTVYQSPHSGSFTITGNNSNFAQRFQGIYRCFASNKLGTAMSHEIRLMAEGAPKWPKETVKPVEVEEGESVVLPCNPPPSAEPLRIYWMNSKILHIKQDERVTMGQNGNLYFANVLTSDNHSDYICQAHFPGTRTIIQKEPIDLRVKATNSMIDRKPRLLFPTNSSSHLVALQGQPLVLECIAEGFPTPTIKWLRPSGPMPADRVTYQNHNKTLQLLKVGEEDDGEYRCLAENSLGSARHAYYVTVEAAPYWLHKPQSHLYGPGETARLDCQVQGRPQPEVTWRINGIPVEELAKDQKYRIQRGALILSNVQPSDTMVTQCEARNRHGLLLANAYIYVVQLPAKILTADNQTYMAVQGSTAYLLCKAFGAPVPSVQWLDEDGTTVLQDERFFPYANGTLGIRDLQANDTGRYFCLAANDQNNVTIMANLKVKDATQITQGPRSTIEKKGSRVTFTCQASFDPSLQPSITWRGDGRDLQELGDSDKYFIEDGRLVIHSLDYSDQGNYSCVASTELDVVESRAQLLVVGSPGPVPRLVLSDLHLLTQSQVRVSWSPAEDHNAPIEKYDIEFEDKEMAPEKWYSLGKVPGNQTSTTLKLSPYVHYTFRVTAINKYGPGEPSPVSETVVTPEAAPEKNPVDVKGEGNETTNMVITWKPLRWMDWNAPQVQYRVQWRPQGTRGPWQEQIVSDPFLVVSNTSTFVPYEIKVQAVNSQGKGPEPQVTIGYSGEDYPQAIPELEGIEILNSSAVLVKWRPVDLAQVKGHLRGYNVTYWREGSQRKHSKRHIHKDHVVVPANTTSVILSGLRPYSSYHLEVQAFNGRGSGPASEFTFSTPEGVPGHPEALHLECQSNTSLLLRWQPPLSHNGVLTGYVLSYHPLDEGGKGQLSFNLRDPELRTHNLTDLSPHLRYRFQLQATTKEGPGEAIVREGGTMALSGISDFGNISATAGENYSVVSWVPKEGQCNFRFHILFKALGEEKGGASLSPQYVSYNQSSYTQWDLQPDTDYEIHLFKERMFRHQMAVKTNGTGRVRLPPAGFATE
modifications: left off: a dimerising Fc or GST
binding to NP-1 expressing cells (NP-1): bound NP-1 expressing cells
effect of mutation on homophilic binding (L1): affect homophilic
switching of Sema3A repulsion to attraction by L1Fc chimera ([1]; chimera 3 μg/ml in culture medium): able to reverse Sema3A repulsion to attraction; also recorded: efficiently induce switching of Sema3A repulsion to attraction

From US20060058504A1, “Peptides capable of inducing attraction to the axonal growth and their use for treating neurodegenerative diseases” (Centre National de la Recherche Scientific (CNRS), priority 2002, published 2006)
